Data from patent US6346642B1, “Mixed crystals comprising aspartame and aspartame derivative and process for producing the same” (Ajinomoto Co., Inc., priority 1997, dated 2002).
Peptide text beside a SMILES is read from it.

Tests used:
[1] = Properties in quality of sweetness compared to sucrose (inventors' findings)
Source text: It is strong in astringency (astringent taste) and badly-balanced for quality of sweetness as compared to sucrose. On the other hand, with respect to APM, its properties for quality of sweetness is weak in early taste, and strong in later taste, although they are not so bad as those in N-(3,3-dimethylbuty)-APM. Therefore, any one of both compounds has the properties for quality of sweetness which is weak in early taste, and strong in later taste, and thus is out of quality of sweetness, taking into account the fact that sucrose is natural in sweetness.

[2] = relative to sucrose, by weight ratio; cited from earlier work

SMILES | early taste (tastes sweet as early as sucrose) ([1]; quality of sweetness) | later taste (tastes sweet later than sucrose) ([1]; quality of sweetness) | sweetening potency [2] | quality of sweetness (balance) [1] | astringency (astringent taste) ([1]; quality of sweetness)
COC(=O)[C@H](Cc1ccccc1)NC(=O)[C@@H](N)CC(=O)O [APM, aspartame] (H-Asp-Phe-OMe) | weak | strong |  |  | 
COC(=O)[C@H](Cc1ccccc1)NC(=O)[C@H](CC(=O)O)NCCC(C)(C)C [N-(3,3-dimethylbutyl)-APM, N-[N-(3,3-dimethylbutyl)-L-α-aspartyl]-L-phenylalanine methyl ester] | extremely weak | extremely strong | 10,000 times by weight ratio that of | badly-balanced | strong
